Patent US12318361B2, “Methods for treating cardiovascular diseases” (Olatec Therapeutics LLC, priority 2017, dated 2025)

Key:
[1] = biological target: T1, NLRP3 inflammasome (association of caspase-1 with NLRP3) (Homo sapiens, UniProt Q96P20); test: FRET analysis of NLRP3 inflammasome assembly in human monocyte-derived macrophages after LPS/ATP; format: cell-based; conditions: 50 μM, HMDM from 4 donors, P<0.01
T1 construct: endogenous in cells; host or cells: human monocyte-derived macrophages (HMDM) from 4 healthy donors
T1 sequence (Q96P20 whole entry): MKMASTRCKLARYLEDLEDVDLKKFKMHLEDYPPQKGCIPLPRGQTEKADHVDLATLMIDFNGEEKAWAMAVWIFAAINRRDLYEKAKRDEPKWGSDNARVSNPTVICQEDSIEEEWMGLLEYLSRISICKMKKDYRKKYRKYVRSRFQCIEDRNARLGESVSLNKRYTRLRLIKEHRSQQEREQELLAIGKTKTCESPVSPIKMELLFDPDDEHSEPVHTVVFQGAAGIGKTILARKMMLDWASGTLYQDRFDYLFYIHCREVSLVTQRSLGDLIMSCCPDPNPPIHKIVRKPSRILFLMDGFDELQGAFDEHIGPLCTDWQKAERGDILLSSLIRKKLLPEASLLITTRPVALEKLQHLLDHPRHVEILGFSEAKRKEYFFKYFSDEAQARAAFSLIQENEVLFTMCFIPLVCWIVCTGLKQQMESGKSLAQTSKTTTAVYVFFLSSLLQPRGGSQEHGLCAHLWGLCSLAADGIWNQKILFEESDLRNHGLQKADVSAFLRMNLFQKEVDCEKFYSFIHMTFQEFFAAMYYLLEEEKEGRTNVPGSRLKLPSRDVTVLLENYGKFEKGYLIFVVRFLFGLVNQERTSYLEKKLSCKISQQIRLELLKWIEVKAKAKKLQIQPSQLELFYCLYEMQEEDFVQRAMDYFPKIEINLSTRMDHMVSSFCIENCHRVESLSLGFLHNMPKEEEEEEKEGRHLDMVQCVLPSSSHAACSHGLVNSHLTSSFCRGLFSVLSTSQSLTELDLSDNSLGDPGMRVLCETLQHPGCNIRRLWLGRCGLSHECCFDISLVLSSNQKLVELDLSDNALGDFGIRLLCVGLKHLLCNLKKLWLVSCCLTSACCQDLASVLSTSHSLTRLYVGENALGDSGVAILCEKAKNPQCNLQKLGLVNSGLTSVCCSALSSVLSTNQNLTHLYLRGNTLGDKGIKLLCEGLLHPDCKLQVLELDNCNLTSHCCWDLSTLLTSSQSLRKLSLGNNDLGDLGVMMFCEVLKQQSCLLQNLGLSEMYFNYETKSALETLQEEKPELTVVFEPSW
Method: Human monocyte-derived macrophages (HMDM) were cultured on glass slides for 5 days with GM-CSF, stimulated for 4 hours with […] LPS and then treated with 5 mM ATP for one hour. Dapansutrile (OLT1177™, 50 μM) was added to the cells either 30 minutes following LPS stimulation or at the same time as ATP.
After washing with PBS, the cells were fixed and permeabilized with 70-30 acetone-methanol as described by Gamboni et al, Physiol Rep., 2 (7), 2014. Briefly, cells were placed in a humidified slide chamber blocked for 1 hour in 10% normal donkey serum (Jackson Immunologicals, Westgrove, PA). After removal of the donkey serum, the primary antibodies to human NLRP3 (Cryo-2, AdipoGen San Diego, CA), human caspase-1 (sc-515, Santa Cruz Biotechnology) or isomolar, species-specific anti-IgG (R&D Systems) were added and kept overnight at 4° C. […] FRET images were acquired using a Marianas Imaging Station using a Zeiss 639 Plan-Apochromat objective (1.4 N/A), a Sutter Xenon light source and a Cooke SensiCam as described by Gamboni et al. The corrected FRET was calculated as FRET=Transfer-Fd/D donor-Fa/Aa acceptor as reported by Berney et al, Biophys J., 84:3992-4010, 2003. […]

[2] = system: rats, thrombus formation in abdominal aorta; test: Thrombus formation in anesthetized rats (abdominal aorta stenosis and compression injury); format: in vivo, rats (CD-1); conditions: intravenous via tail vein, 5 min before injury; written in present tense
Method: To evaluate the effect of dapansutrile on thrombus formation in vivo, the following experimental protocol is performed.
Rats (CD-1; male; approximately 350 grams; Charles River, Raleigh, NC), are anesthetized with sodium pentobarbital (70 mg/kg i.p.). The abdomens are shaved and a 22 gauge intravenous catheter is inserted into a lateral tail vein. A midline incision is made and the intestines are wrapped in saline-soaked gauze and positioned so the abdominal aorta is accessible. […] All branches from the aorta in this section are ligated with 4-0 silk suture. A 2.5 mm diameter flow probe connected to a Transonic flow meter is placed on the artery and a baseline (pre-stenosis) flow is recorded. Two clips are placed around the artery decreasing the vessel diameter by approximately 80%. A second baseline flow measurement is taken (post-stenosis) and the hyperemic response is tested. Animals are then treated with either Rho kinase inhibitor compound or saline intravenously via tail vein catheter. Thrombosis is induced five minutes after treatment by repeated external compressions of the vessel with hemostatic forceps. Two minutes post-injury, the vessel compressions are repeated and a 10 minute period of flow monitoring is started. Animals are monitored continuously for a minimum of the first ten minutes post-injury. […]

caspase-1 = test: Caspase-1 activity in J774A.1 cell lysates after LPS and nigericin stimulation; format: cell-based, murine; conditions: 50 μM, J774A.1 cells, n=3, p<0.05
Method: J774A.1 murine macrophages cells were stimulated with 1 μg/ml lipopolysaccharide (LPS) for 4 hours and either nigericin (NIG, 10 μM) or ATP (5 mM) was added for 1 hour. OLT1177™ was added to the cells either 30 minutes following LPS stimulation or at the same time as ATP.
1 cell lysates following LPS and NIG stimulation in presence of 50 μM dapansutrile (OLT1177™). Caspase-1 activity is expressed as percent change of the mean value of each assay (n=3) with LPS/NIG set at 100%. Caspase-1 activity was reduced by 35% (p<0.05) in an enzymatic assay of cell lysate from stimulated cells in the presence of dapansutrile, comparing with control.

[3] = system: adult CD1 male mice, acute myocardial infarction; test: Acute myocardial infarction (30 min ischemia, 24 h reperfusion), infarct sparing effect, Example 8; format: in vivo; conditions: 60 mg/kg IP immediately after reperfusion, vs vehicle
Method: An acute myocardial infarction in adult CD1 male mice was induced by performing a transient surgical ligation of the left coronary artery for 30 minutes followed by reperfusion for 24 hours: 3 mice received OLT1177™ (60 mg/kg) given intraperitoneally immediately after reperfusion and 8 mice received an equal volume of vehicle (NaCl 0.9%). After 24 hours, left ventricular fractional shortening, a surrogate for cardiac systolic function, was measured, using transthoracic echocardiography. After the echocardiogram, the mice were prepared for infarct size measurement using the Triphenyl-Tetrazolium-Chloride (TTC) and Evans Blue technique and then sacrificed: the area of the heart considered not ischemia (non-risk area) appeared blue, the area of the heart that was at risk but viable appeared red, the infarct myocardium appeared pale-white. The left panel of FIG. 6 depicts the TTC/Evans Blue staining of one mouse treated with vehicle and one with OLT1177™: it is apparent that the area of infarct is much larger in the vehicle.

[4] = system: IL-1β release from human monocytes-derived macrophages; test: Suppression of IL-1β release from human monocytes-derived macrophages (LPS priming, nigericin release, ELISA); format: cell-based
Method: (§1) Peripheral blood mononuclear cells (PBMCs) were isolated from blood of 6 healthy human donors and differenciates in macrophages using GM-CSF (5 ng/ml) for 5 days. They were stimulated with 1 μg/mL with lipopolysaccharide (LPS, priming phase) at time zero. At 30 minutes, they were incubated with different concentrations of dapansutrile (OLT1177™) from 0.001-100 μM. At 4 hours, 10 μM of nigericin (NIG, release phase) was added. At the end of an 5 hour incubation period, the supernatant was harvested and assayed for IL-1β or IL-18 using respective ELISA kits following manafacturer's protocols.

[5] = system: IL-18 release from human monocytes-derived macrophages; test: Suppression of IL-18 release from human monocytes-derived macrophages (LPS priming, nigericin release, ELISA); format: cell-based
Method: as §1

[6] = HMDM, 1 μg/mL LPS then 10 μM nigericin, 0.001-100 μM tested
[7] = LPS/nigericin, compared to control

CS(=O)(=O)CCC#N [OLT1177™, 3-methanesulfonyl-propionitrile]
association of caspase-1 with NLRP3 (FRET intensity) [1]: reduced | histological evidence of thrombosis [2]: decrease | vessel injury-induced flow reduction [2]: decrease | reduction of caspase-1 activity in cell lysate (LPS/NIG set at 100%) (caspase-1): 35% | infarct size as percentage of the area-at-risk [3]: significantly smaller | left ventricular systolic function (fractional shortening) [3]: preservation | concentration of maximum suppression effect on IL-1β release [4, 6]: 1 µM | release of IL-1β from stimulated monocytes-derived macrophages [4, 7]: suppresses | concentration of maximum suppression effects on IL-18 release [5, 6]: 10 to 50 µM | release of IL-18 from stimulated monocytes-derived macrophages [5, 7]: suppresses
